We go through 65 compounds from US20060252807A1, “Novel ortho-terphenyl inhibitors of p38 kinase and methods of treating inflammatory disorders” (Kalypsys, Inc., priority 2005, published 2006).

T1 sequence (Q16539 whole entry): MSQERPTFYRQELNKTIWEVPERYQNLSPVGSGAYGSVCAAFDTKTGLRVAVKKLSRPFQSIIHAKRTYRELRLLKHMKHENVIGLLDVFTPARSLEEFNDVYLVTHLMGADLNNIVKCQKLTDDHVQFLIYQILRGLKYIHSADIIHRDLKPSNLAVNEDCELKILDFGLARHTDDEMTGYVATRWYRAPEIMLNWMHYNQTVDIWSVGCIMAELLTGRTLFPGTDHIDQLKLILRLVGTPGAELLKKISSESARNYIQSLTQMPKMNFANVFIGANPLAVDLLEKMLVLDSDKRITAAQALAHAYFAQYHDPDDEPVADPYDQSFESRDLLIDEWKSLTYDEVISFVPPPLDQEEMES

This test addresses T1, active p38 alpha enzyme (Upstate Biotechnology) (Homo sapiens, UniProt Q16539).
T1 construct: purchased Upstate Biotechnology
Kind of test: p38α biochemical assay (ATP turnover, luminescent detection, Cambrex PKlight). Conditions: p38α biochemical assay, Table 1 Biological Activity. In a few lines: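 Active p38α phosphorylates MapkapK2 whole protein with 1.4 uM final ATP, 2 h at 30C, in Tris/MOPS buffer with MgCl2, CaCl2, EGTA, EDTA, glycerol, β-mercaptoethanol and 1 mg/ml BSA. Compounds pin-delivered from DMSO; total ATP turnover read by luminescence after PKlight addition.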
Regarding `Cc1cccc(C(=O)NCc2onc(-c3ccc(F)cc3)c2-c2nc(C(=O)NC(C)C)cs2)c1C` [Example 611], the IC50 – broadly, the point on the concentration scale where inhibition reaches its midpoint – was more than 1 µM.

The compound `Cc1ccc(C)c(C(=O)NCc2onc(-c3ccc(F)cc3)c2-c2nc(C(=O)NC(C)C)cs2)c1` [Example 612] came in with an IC50 of more than 1 µM.

`Cc1cc(C)cc(C(=O)NCc2onc(-c3ccc(F)cc3)c2-c2nc(C(=O)NC(C)C)cs2)c1` [Example 613] gave an IC50 of more than 1 µM.

Take `Cc1ccc(C(=O)NCc2onc(-c3ccc(F)cc3)c2-c2nc(C(=O)NC(C)C)cs2)cc1C` [Example 614]: the IC50 is more than 1 µM.

With `CCc1ccc(C(=O)NCc2onc(-c3ccc(F)cc3)c2-c2nc(C(=O)NC(C)C)cs2)cc1` [Example 615], the IC50 is more than 1 µM.

Compound `COc1ccc(C(=O)NCc2onc(-c3ccc(F)cc3)c2-c2nc(C(=O)NC(C)C)cs2)cc1` [Example 616] showed an IC50 of more than 1 µM.

`Cc1cccc(C(=O)NCc2onc(-c3ccc(F)cc3)c2-c2nc(C(=O)NC(C)C)cs2)c1O` [Example 617]: the half-maximal inhibitory concentration (IC50) is more than 1 µM.

As to `CC(C)NC(=O)c1csc(-c2c(-c3ccc(F)cc3)noc2CNC(=O)Cc2ccccc2O)n1` [Example 618], the IC50 is more than 1 µM.

For the compound `CC(C)NC(=O)c1csc(-c2c(-c3ccc(F)cc3)noc2CNC(=O)Cc2cccc(O)c2)n1` [Example 619], the IC50 is not above 1 µM.

Compound `Cc1ccc(O)c(C(=O)NCc2onc(-c3ccc(F)cc3)c2-c2nc(C(=O)NC(C)C)cs2)c1` [Example 620] showed an IC50 of more than 1 µM.

The compound `CC(C)NC(=O)c1csc(-c2c(-c3ccc(F)cc3)noc2CNC(=O)c2cc(O)ccc2O)n1` [Example 621] showed an IC50 of more than 1 µM.

In turn, `CC(C)NC(=O)c1csc(-c2c(-c3ccc(F)cc3)noc2CNC(=O)c2cccc(O)c2O)n1` [Example 622] yielded an IC50 of more than 1 µM.

`CC(C)NC(=O)c1csc(-c2c(-c3ccc(F)cc3)noc2CNC(=O)c2ccc(O)cc2O)n1` [Example 623]: the IC50 is more than 1 µM.

Consider `Cc1ccc(C(=O)NCc2onc(-c3ccc(F)cc3)c2-c2nc(C(=O)NC(C)C)cs2)cc1F` [Example 624], for which the half-inhibitory concentration (IC50) was more than 1 µM.

On to `Cc1ccc(F)cc1C(=O)NCc1onc(-c2ccc(F)cc2)c1-c1nc(C(=O)NC(C)C)cs1` [Example 625], for which the IC50 was more than 1 µM.

Compound `CC(C)NC(=O)c1csc(-c2c(-c3ccc(F)cc3)noc2CNC(=O)c2ccccc2Cl)n1` [Example 626] had a concentration for half-maximal inhibition (IC50) of more than 1 µM.

Consider `CC(C)NC(=O)c1csc(-c2c(-c3ccc(F)cc3)noc2CNC(=O)c2ccc(Cl)nc2)n1` [Example 627], for which the IC50 was more than 1 µM.

Turning to `CC(C)NC(=O)c1csc(-c2c(-c3ccc(F)cc3)noc2CNC(=O)c2cccnc2Cl)n1` [Example 628], the half-maximal inhibitory concentration (IC50) was more than 1 µM.

Turning to `CC(C)NC(=O)c1csc(-c2c(-c3ccc(F)cc3)noc2CNC(=O)c2ccnc(Cl)c2)n1` [Example 629], the IC50 is more than 1 µM.

`CC(C)NC(=O)c1csc(-c2c(-c3ccc(F)cc3)noc2CNC(=O)c2cc(Cl)ccn2)n1` [Example 630] yielded an IC50 of more than 1 µM.

In turn, `CC(C)NC(=O)c1csc(-c2c(-c3ccc(F)cc3)noc2CNC(=O)c2ccncc2Cl)n1` [Example 631] showed an IC50 not above 1 µM.

The compound `CC(C)NC(=O)c1csc(-c2c(-c3ccc(F)cc3)noc2CNC(=O)c2c(F)cccc2F)n1` [Example 632] showed an IC50 of more than 1 µM.

Regarding `CC(C)NC(=O)c1csc(-c2c(-c3ccc(F)cc3)noc2CNC(=O)c2cccc(F)c2F)n1` [Example 633], the IC50 is more than 1 µM.

Consider `CC(C)NC(=O)c1csc(-c2c(-c3ccc(F)cc3)noc2CNC(=O)c2ccc(F)cc2F)n1` [Example 634], for which the half-maximal inhibitory concentration (IC50) is more than 1 µM.

`CC(C)NC(=O)c1csc(-c2c(-c3ccc(F)cc3)noc2CNC(=O)c2cc(F)cc(F)c2)n1` [Example 635] displayed a 50% inhibitory concentration (IC50) of more than 1 µM.

On to `CC(C)NC(=O)c1csc(-c2c(-c3ccc(F)cc3)noc2CNC(=O)c2ccc(F)c(F)c2)n1` [Example 636], for which the 50% inhibitory concentration (IC50) was more than 1 µM.

Regarding `CC(CC(=O)NCc1onc(-c2ccc(F)cc2)c1-c1nc(C(=O)NC(C)C)cs1)CC(C)(C)C` (centres unmarked) [Example 637], the half-inhibitory concentration (IC50) was more than 1 µM.

The compound `CC(C)NC(=O)c1csc(-c2c(-c3ccc(F)cc3)noc2CNC(=O)c2cc3ccccc3o2)n1` [Example 638] returned a 50% inhibitory concentration (IC50) of more than 1 µM.

`CC(C)NC(=O)c1csc(-c2c(-c3ccc(F)cc3)noc2CNC(=O)C2CCc3ccccc32)n1` (centres unmarked) [Example 639]: the IC50 is more than 1 µM.

Compound `CC(C)NC(=O)c1csc(-c2c(-c3ccc(F)cc3)noc2CNC(=O)C(Cl)(Cl)Cl)n1` [Example 640] returned a concentration for half-maximal inhibition (IC50) of more than 1 µM.

`CC(C)NC(=O)c1csc(-c2c(-c3ccc(F)cc3)noc2CNC(=O)/C=C/c2ccccc2O)n1` [Example 641] had an IC50 of more than 1 µM.

In turn, `CC(=O)c1ccc(C(=O)NCc2onc(-c3ccc(F)cc3)c2-c2nc(C(=O)NC(C)C)cs2)cc1` [Example 642] gave an IC50 of more than 1 µM.

Regarding `CC(C)NC(=O)c1csc(-c2c(-c3ccc(F)cc3)noc2CNC(=O)/C=C/c2cccc(O)c2)n1` [Example 643], the IC50 was more than 1 µM.

The compound `CC(=O)c1cccc(C(=O)NCc2onc(-c3ccc(F)cc3)c2-c2nc(C(=O)NC(C)C)cs2)c1` [Example 644] registered an IC50 of more than 1 µM.

Compound `CC(=O)c1ccccc1C(=O)NCc1onc(-c2ccc(F)cc2)c1-c1nc(C(=O)NC(C)C)cs1` [Example 645] gave a concentration for half-maximal inhibition (IC50) of more than 1 µM.

Compound `CC(C)NC(=O)c1csc(-c2c(-c3ccc(F)cc3)noc2CNC(=O)c2ccc(C(C)C)cc2)n1` [Example 646] showed a 50% inhibitory concentration (IC50) of more than 1 µM.

`Cc1ccccc1CCC(=O)NCc1onc(-c2ccc(F)cc2)c1-c1nc(C(=O)NC(C)C)cs1` [Example 647] gave an IC50 of more than 1 µM.

Turning to `Cc1cccc(CCC(=O)NCc2onc(-c3ccc(F)cc3)c2-c2nc(C(=O)NC(C)C)cs2)c1` [Example 648], the half-maximal inhibitory concentration (IC50) was more than 1 µM.

`CCC(C(=O)NCc1onc(-c2ccc(F)cc2)c1-c1nc(C(=O)NC(C)C)cs1)c1ccccc1` (centres unmarked) [Example 649] gave a half-inhibitory concentration (IC50) of more than 1 µM.

Compound `Cc1cc(C)c(C(=O)NCc2onc(-c3ccc(F)cc3)c2-c2nc(C(=O)NC(C)C)cs2)c(C)c1` [Example 650] returned a concentration for half-maximal inhibition (IC50) of more than 1 µM.

Compound `CCCc1ccc(C(=O)NCc2onc(-c3ccc(F)cc3)c2-c2nc(C(=O)NC(C)C)cs2)cc1` [Example 651] displayed an IC50 of more than 1 µM.

The compound `CC(C)NC(=O)c1csc(-c2c(-c3ccc(F)cc3)noc2CNC(=O)c2ccc3c(c2)OCO3)n1` [Example 652] showed an IC50 of more than 1 µM.

Regarding `CC(C)NC(=O)c1csc(-c2c(-c3ccc(F)cc3)noc2CNC(=O)/C=C/c2ccccc2F)n1` [Example 653], the IC50 was not above 1 µM.

Regarding `CCOc1ccccc1C(=O)NCc1onc(-c2ccc(F)cc2)c1-c1nc(C(=O)NC(C)C)cs1` [Example 654], the IC50 is more than 1 µM.

In turn, `Cc1ccccc1OCC(=O)NCc1onc(-c2ccc(F)cc2)c1-c1nc(C(=O)NC(C)C)cs1` [Example 655] showed an IC50 of more than 1 µM.

`CC(C)NC(=O)c1csc(-c2c(-c3ccc(F)cc3)noc2CNC(=O)CCc2ccccc2O)n1` [Example 656]: the IC50 was more than 1 µM.

`COc1ccccc1CC(=O)NCc1onc(-c2ccc(F)cc2)c1-c1nc(C(=O)NC(C)C)cs1` [Example 657] showed an IC50 of more than 1 µM.

Compound `CC(C)NC(=O)c1csc(-c2c(-c3ccc(F)cc3)noc2CNC(=O)C(C)c2ccc(O)cc2)n1` (centres unmarked) [Example 658] gave a concentration for half-maximal inhibition (IC50) of more than 1 µM.

For `CC(C)NC(=O)c1csc(-c2c(-c3ccc(F)cc3)noc2CNC(=O)c2ccccc2[N+](=O)[O-])n1` [Example 659], the 50% inhibitory concentration (IC50) was more than 1 µM.

As to `CC(C)NC(=O)c1csc(-c2c(-c3ccc(F)cc3)noc2CNC(=O)c2cccc([N+](=O)[O-])c2)n1` [Example 660], the IC50 was more than 1 µM.

The compound `COc1cccc(O)c1C(=O)NCc1onc(-c2ccc(F)cc2)c1-c1nc(C(=O)NC(C)C)cs1` [Example 661] returned an IC50 of more than 1 µM.

In turn, `COc1ccc(O)c(C(=O)NCc2onc(-c3ccc(F)cc3)c2-c2nc(C(=O)NC(C)C)cs2)c1` [Example 662] came in with an IC50 of more than 1 µM.

As to `COc1ccc(C(=O)NCc2onc(-c3ccc(F)cc3)c2-c2nc(C(=O)NC(C)C)cs2)c(O)c1` [Example 663], the IC50 was more than 1 µM.

Regarding `COc1ccc(C(=O)NCc2onc(-c3ccc(F)cc3)c2-c2nc(C(=O)NC(C)C)cs2)cc1O` [Example 664], the IC50 was more than 1 µM.

Turning to `CC(C)NC(=O)c1csc(-c2c(-c3ccc(F)cc3)noc2CNC(=O)c2cc(O)c(O)c(O)c2)n1` [Example 665], the IC50 is more than 1 µM.

The compound `CC(C)NC(=O)c1csc(-c2c(-c3ccc(F)cc3)noc2CNC(=O)Cc2ccc(O)c(F)c2)n1` [Example 666] registered a concentration for half-maximal inhibition (IC50) of more than 1 µM.

On to `Cc1cc(C(=O)NCc2onc(-c3ccc(F)cc3)c2-c2nc(C(=O)NC(C)C)cs2)cc(Cl)n1` [Example 667], for which the IC50 is more than 1 µM.

With `CC(C)NC(=O)c1csc(-c2c(-c3ccc(F)cc3)noc2CNC(=O)Cc2c(F)cccc2F)n1` [Example 668], the 50% inhibitory concentration (IC50) was more than 1 µM.

For `CC(C)NC(=O)c1csc(-c2c(-c3ccc(F)cc3)noc2CNC(=O)c2cccc3ccccc23)n1` [Example 669], the IC50 is not above 1 µM.

Turning to `CC(C)NC(=O)c1csc(-c2c(-c3ccc(F)cc3)noc2CNC(=O)c2ccc(Cl)cc2O)n1` [Example 670], the concentration for half-maximal inhibition (IC50) was more than 1 µM.

On to `CC(C)NC(=O)c1csc(-c2c(-c3ccc(F)cc3)noc2CNC(=O)c2cc(Cl)ccc2O)n1` [Example 671], for which the IC50 was more than 1 µM.

In the case of `CC(C)NC(=O)c1csc(-c2c(-c3ccc(F)cc3)noc2CNC(=O)c2ccc3ncccc3c2)n1` [Example 672], the IC50 is more than 1 µM.

Compound `CC(C)NC(=O)c1csc(-c2c(-c3ccc(F)cc3)noc2CNC(=O)c2cnc(O)c(Cl)c2)n1` [Example 673] displayed an IC50 of more than 1 µM.

Regarding `CC(C)NC(=O)c1csc(-c2c(-c3ccc(F)cc3)noc2CNC(=O)c2ccc(F)cc2Cl)n1` [Example 674], the IC50 was more than 1 µM.

On to `CC(C)NC(=O)c1csc(-c2c(-c3ccc(F)cc3)noc2CNC(=O)c2c(F)cccc2Cl)n1` [Example 675], for which the 50% inhibitory concentration (IC50) was more than 1 µM.
